From paper PMC3318891, “Insights into the In Vivo Regulation of Glutamate Dehydrogenase from the Foot Muscle of an Estivating Land Snail” (Enzyme Research, 2012) come the findings set out here.

Holding throughout (format): biochemical
The subject of assay [1] is T1, control Otala lactea foot muscle GDH.
T1 construct: native enzyme purified from foot muscle of active (control) snails on GTP-agarose; low-phosphate form, sites unknown
As to the kind of experiment: NADH absorbance at […] nm, glutamate-synthesizing direction. The conditions noted are these: no ADP, 0.2 mM NADH, HEPES pH 7.2.

For assay [2] the test system is unchanged. Described as above. The conditions noted are these: inhibitor; suboptimal substrates 0.2 mM α-ketoglutarate, 0.15 mM NADH, 40 mM NH4Cl; HEPES pH 7.2.
Assay [3] concerns T2, 10 day estivated Otala lactea foot muscle GDH.
T2 construct: native enzyme purified from foot muscle of 10-day estivated snails on GTP-agarose; high-phosphate form, sites unknown
The description is as above. The conditions noted are these: inhibitor; suboptimal substrates 0.2 mM α-ketoglutarate, 0.15 mM NADH, 40 mM NH4Cl; HEPES pH 7.2.

Assay [4] has as its system T1, control Otala lactea foot muscle GDH. As to the kind of experiment: NADH absorbance at […] nm, glutamate-oxidizing direction. The conditions noted are these: no ADP, Tris-HCl pH 8.0.
Assay [5] concerns T2, 10 day estivated Otala lactea foot muscle GDH. Described as above. As to conditions: no ADP, Tris-HCl pH 8.0.
For assay [6], the system named is T1, control Otala lactea foot muscle GDH. The assay is described as above. The conditions noted are these: activation constant (half-maximal activation, not association constant); suboptimal substrates 10 mM L-glutamate, 0.5 mM NAD+; Tris-HCl pH 8.0.
In assay [7] the test system is T2, 10 day estivated Otala lactea foot muscle GDH. The assay is described as above. The conditions noted are these: activation constant (half-maximal activation, not association constant); suboptimal substrates 10 mM L-glutamate, 0.5 mM NAD+; Tris-HCl pH 8.0.
Assay [8] shares this test system. Briefly: NADH absorbance at […] nm, glutamate-synthesizing direction. As to conditions: no ADP; optimal co-substrates 100 mM NH4Cl, 0.2 mM NADH; HEPES pH 7.2.
In assay [9] the test system is T1, control Otala lactea foot muscle GDH. The assay is described as above. As to conditions: activation constant (half-maximal activation, not association constant); suboptimal substrates 0.2 mM α-ketoglutarate, 0.15 mM NADH, 40 mM NH4Cl; HEPES pH 7.2.
[10] abbreviates: optimal co-substrate 50 mM L-glutamate.
Where [11] appears, read: optimal co-substrate 1.5 mM NAD+.

In general, Km refers to the concentration of substrate that gives half-maximal velocity. Take `N` [NH4 ^+]: in assay [1] (optimal co-substrates 1 mM α-ketoglutarate), the Michaelis constant (Km) turned out to be 63000 ± 2000 µM.
For orientation: IC50 means the concentration needed to halve the response being measured. The low end stands for higher potency, the high end for lower potency. On to `Nc1nc2c(ncn2[C@@H]2O[C@H](COP(=O)(O)OP(=O)(O)OP(=O)(O)O)[C@@H](O)[C@H]2O)c(=O)[nH]1` [GTP], for which the IC50 in assay [2] was 0.34 ± 0.02 µM; in [3], 0.15 ± 0.02 µM.
Consider `NC(=O)c1ccc[n+]([C@@H]2O[C@H](COP(=O)(O)OP(=O)(O)OC[C@H]3O[C@@H](n4cnc5c(N)ncnc54)[C@H](O)[C@@H]3O)[C@@H](O)[C@H]2O)c1` [NAD^+], for which the results for the Km in assay [4] (setting [10]) and in [5] (setting [10]) were 590 ± 80 µM and 490 ± 20 µM, respectively.
The EC50 is the midpoint of the concentration-response curve. Take `Nc1ncnc2c1ncn2[C@@H]1O[C@H](COP(=O)(O)OP(=O)(O)O)[C@@H](O)[C@H]1O` [ADP]: the EC50 in assay [6] is 4.7 ± 0.7 µM; in assay [7] it was 3.5 ± 0.5 µM.
Consider `O=C(O)CCC(=O)C(=O)O` [α-ketoglutarate], for which the Km worked out at 550 ± 50 µM in assay [8] and 190 ± 30 µM in assay [1] (optimal co-substrates 100 mM NH4Cl).
As for `Nc1ncnc2c1ncn2[C@@H]1O[C@H](COP(=O)(O)O)[C@@H](O)[C@H]1O` [AMP], the EC50 in assay [9] worked out at 270 ± 40 µM.
As for `N[C@@H](CCC(=O)O)C(=O)O` [L-glutamate], the results for the Km in assay [4] (setting [11]) and in assay [5] (setting [11]) were 900 ± 20 µM and 840 ± 20 µM, respectively.
Take `Nc1ncnc2c1ncn2[C@@H]1O[C@H](COP(=O)(O)OP(=O)(O)OP(=O)(O)O)[C@@H](O)[C@H]1O` [ATP]: half-maximal inhibition in assay [2] (IC50) required 7000 ± 1000 µM.
